How the values were obtained:
Japanese bulrush [1] = test: Test Example 1: herbicidal activity, application before weed generation under submerged conditions (Table 16, symbol B); format: in vivo, Japanese bulrush (Schoenoplectus juncoides); conditions: amount of applied herbicide 320 g/ha
How it was run: (§1)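 Emulsion formulation, water-diluted to set dose, was put onto the flooded surface (4 cm depth, alluvial soil) the same day weeds were sown and 2.5-leaf rice transplanted. After 3 weeks at 25-30 °C under glass, each species was rated 0 (≤5% kill) to 5 (≥90% kill).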

lambsquarters = test: Test Example 5: herbicidal effect by foliage application, plastic box (Table 20, symbol O); format: in vivo, lambsquarters (Chenopodium album); conditions: 320 g/ha; for O: lambsquarters, herbicidal effect grade: foliage application, three weeks after application
How it was run: (§2)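 Plants sown in sterilized diluvial soil and grown 14 days in a greenhouse at 25° C to 30° C, then sprayed on the foliage with the compound's emulsion diluted in water to a predetermined herbicide amount. Injury to weeds and crops scored three weeks after application on a visual rating scale.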

blackgrass [2] = test: Test Example 5: herbicidal effect by foliage application, plastic box (Table 20, symbol J); format: in vivo, blackgrass (Alopecurus myosuroides); conditions: 320 g/ha; for J: blackgrass, herbicidal effect grade: foliage application, three weeks after application
How it was run: as §2

barnyard grass [3] = test: Test Example 3: herbicidal effect by foliage application, Wagner pot (Table 18, symbol H); format: in vivo, barnyard grass (Echinochloa crus-galli); conditions: for herbicidal effect on barnyard grass (H): 320 g/ha
How it was run: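 Plants were sown in alluvial soil held under 0.1–0.5 cm standing water and grown 14 days in a greenhouse at 25–30 °C. An emulsifiable formulation, water-diluted to the set dose, was then sprayed onto the foliage, and effects were scored three weeks later using previously defined criteria.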

Japanese bulrush [4] = test: Test Example 2: herbicidal activity, application during weed generation under submerged conditions (Table 17, symbol B); format: in vivo, Japanese bulrush (Schoenoplectus juncoides); conditions: AAH 320 g/ha; application during weed generation, submerged conditions
How it was run: (§3)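 Effect on each weed is rated three weeks post-treatment, using the same scoring criteria as the preceding test. Plants grow from mixed-sown seed in flooded alluvial soil (4 cm water) at 25° C. to 30° C., and are treated at one to two leaves with diluted emulsion dropped onto the water.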

barnyard grass [5] = test: Test Example 4: herbicidal effect by soil treatment (Table 19, symbol H); format: in vivo, barnyard grass (Echinochloa crus-galli); conditions: amount of applied herbicide 320 g/ha
How it was run: (§4)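 Seeds were sown in sterilized diluvial soil and covered with about 1.5 cm of soil. An emulsion formulation diluted with water to a predetermined herbicide amount was sprayed evenly onto the soil surface. Plants grew in a greenhouse at 25° C. to 30° C., and the effect was scored three weeks after application using criteria from an earlier test.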

persian speedwell = test: Test Example 5: herbicidal effect by foliage application, plastic box (Table 20, symbol R); format: in vivo, Persian speedwell (Veronica persica); conditions: 320 g/ha; for R: persian speedwell, herbicidal effect grade: foliage application, three weeks after application
How it was run: as §2

wild oat = test: Test Example 5: herbicidal effect by foliage application, plastic box (Table 20, symbol I); format: in vivo, wild oat (Avena fatua); conditions: 320 g/ha; for I: wild oat, herbicidal effect grade: foliage application, three weeks after application
How it was run: as §2

late watergrass = test: Test Example 2: herbicidal activity, application during weed generation under submerged conditions (Table 17, symbol A); format: in vivo, late watergrass (Echinochloa oryzicola); conditions: AAH 320 g/ha; application during weed generation, submerged conditions
How it was run: as §3

southern crabgrass [6] = test: Test Example 4: herbicidal effect by soil treatment (Table 19, symbol F); format: in vivo, southern crabgrass (Digitaria ciliaris); conditions: amount of applied herbicide 320 g/ha
How it was run: as §4

southern crabgrass [7] = test: Test Example 5: herbicidal effect by foliage application, plastic box (Table 20, symbol F); format: in vivo, southern crabgrass (Digitaria ciliaris); conditions: 320 g/ha; for F: southern crabgrass, herbicidal effect grade: foliage application, three weeks after application
How it was run: as §2

redroot pigweed [8] = test: Test Example 5: herbicidal effect by foliage application, plastic box (Table 20, symbol N); format: in vivo, redroot pigweed (Amaranthus retroflexus); conditions: 320 g/ha; for N: redroot pigweed, herbicidal effect grade: foliage application, three weeks after application
How it was run: as §2

green foxtail = test: Test Example 5: herbicidal effect by foliage application, plastic box (Table 20, symbol G); format: in vivo, green foxtail (Setaria viridis); conditions: 320 g/ha; for G: green foxtail, herbicidal effect grade: foliage application, three weeks after application
How it was run: as §2

redroot pigweed [9] = test: Test Example 4: herbicidal effect by soil treatment (Table 19, symbol N); format: in vivo, redroot pigweed (Amaranthus retroflexus); conditions: amount of applied herbicide 320 g/ha
How it was run: as §4

chickweed = test: Test Example 4: herbicidal effect by soil treatment (Table 19, symbol P); format: in vivo, common chickweed (Stellaria media); conditions: amount of applied herbicide 320 g/ha
How it was run: as §4

oval-leafed pondweed = test: Test Example 1: herbicidal activity, application before weed generation under submerged conditions (Table 16, symbol C); format: in vivo, oval-leafed pondweed (Monochoria vaginalis); conditions: amount of applied herbicide 320 g/ha
How it was run: as §1

blackgrass [10] = test: Test Example 4: herbicidal effect by soil treatment (Table 19, symbol J); format: in vivo, blackgrass (Alopecurus myosuroides); conditions: amount of applied herbicide 320 g/ha
How it was run: as §4

[11] = foliage application after 14-day growth, evaluated three weeks after application

| SMILES | Herbicidal effect, B: Japanese bulrush (Japanese bulrush [1]) | O: lambsquarters, herbicidal effect grade (lambsquarters) | J: blackgrass, herbicidal effect grade (blackgrass [2]) | herbicidal effect rating, B: Japanese bulrush (Japanese bulrush [4]) | R: persian speedwell, herbicidal effect grade (persian speedwell) | I: wild oat, herbicidal effect grade (wild oat) | herbicidal effect rating, A: late watergrass (late watergrass) | F: southern crabgrass, herbicidal effect grade (southern crabgrass [7]) | N: redroot pigweed, herbicidal effect grade (redroot pigweed [8]) | G: green foxtail, herbicidal effect grade (green foxtail) | Herbicidal effect, C: oval-leafed pondweed (oval-leafed pondweed) | herbicidal effect on barnyard grass (H) (barnyard grass [3]) | H: barnyard grass, herbicidal effect grade (barnyard grass [5]) | F: southern crabgrass, herbicidal effect grade (southern crabgrass [6]) | N: redroot pigweed, herbicidal effect grade (redroot pigweed [9]) | P: chickweed, herbicidal effect grade (chickweed) | J: blackgrass, herbicidal effect grade (blackgrass [10]) | further results |
| --- | --- | --- | --- | --- | --- | --- | --- | --- | --- | --- | --- | --- | --- | --- | --- | --- | --- | --- |
| COc1ccccc1-c1sc2cc(F)ccc2c1-c1c(O)c(C)nn(C)c1=O [3-003] | 4 (Herbicidal rate of 70% or more and less than 90%) | 4 (Herbicidal rate of 70% or more and less than 90%) | 5 (Herbicidal rate of 90% or more (almost completely withered)) | 3 (Herbicidal rate of 40% or more and less than 70%) | 5 (Herbicidal rate of 90% or more (almost completely withered)) | 5 (Herbicidal rate of 90% or more (almost completely withered)) | 2 (Herbicidal rate of 20% or more and less than 40%) | 5 (Herbicidal rate of 90% or more (almost completely withered)) | 5 (Herbicidal rate of 90% or more (almost completely withered)) | 5 (Herbicidal rate of 90% or more (almost completely withered)) | 5 (Herbicidal rate of 90% or more (almost completely withered)) | – | – | – | – | – | – | herbicidal effect on H: barnyard grass (barnyard grass [3]; amount of applied herbicide 320 g/ha): 5 (Herbicidal rate of 90% or more (almost completely withered)); herbicidal effect, H: barnyard grass (barnyard grass [5]): 4 (Herbicidal rate of 70% or more and less than 90%); herbicidal effect, F: southern crabgrass (southern crabgrass [6]): 4 (Herbicidal rate of 70% or more and less than 90%); herbicidal effect, N: redroot pigweed (redroot pigweed [9]): 5 (Herbicidal rate of 90% or more (almost completely withered)); herbicidal effect, P: chickweed (chickweed): 4 (Herbicidal rate of 70% or more and less than 90%); herbicidal effect, J: blackgrass (blackgrass [10]): 3 (Herbicidal rate of 40% or more and less than 70%) |
| CCCC(=O)Oc1c(C)nn(C)c(=O)c1-c1c(-c2ccccc2)sc2cc(OC)ccc12 [3-062] | 4 (Herbicidal rate of 70% or more and less than 90%) | 2 (Herbicidal rate of 20% or more and less than 40%) | 0 (Herbicidal rate of 5% or less (almost no effect)) | 3 (Herbicidal rate of 40% or more and less than 70%) | 3 (Herbicidal rate of 40% or more and less than 70%) | 2 (Herbicidal rate of 20% or more and less than 40%) | 0 (Herbicidal rate of 5% or less (almost no effect)) | 0 (Herbicidal rate of 5% or less (almost no effect)) | 2 (Herbicidal rate of 20% or more and less than 40%) | 0 (Herbicidal rate of 5% or less (almost no effect)) | 4 (Herbicidal rate of 70% or more and less than 90%) | 2 (Herbicidal rate of 20% or more and less than 40%) | 0 (Herbicidal rate of 5% or less (almost no effect)) | 0 (Herbicidal rate of 5% or less (almost no effect)) | 0 (Herbicidal rate of 5% or less (almost no effect)) | 4 (Herbicidal rate of 70% or more and less than 90%) | 0 (Herbicidal rate of 5% or less (almost no effect)) | – |
| COc1ccccc1-c1sc2cc(OCc3ccccc3)ccc2c1-c1c(O)c(C)nn(C)c1=O [3-118] | 3 (Herbicidal rate of 40% or more and less than 70%) | 5 (Herbicidal rate of 90% or more (almost completely withered)) | 4 (Herbicidal rate of 70% or more and less than 90%) | 2 (Herbicidal rate of 20% or more and less than 40%) | 5 (Herbicidal rate of 90% or more (almost completely withered)) | 3 (Herbicidal rate of 40% or more and less than 70%) | 1 (Herbicidal rate of 5% or more and less than 20%) | 4 (Herbicidal rate of 70% or more and less than 90%) | 5 (Herbicidal rate of 90% or more (almost completely withered)) | 3 (Herbicidal rate of 40% or more and less than 70%) | 5 (Herbicidal rate of 90% or more (almost completely withered)) | 4 (Herbicidal rate of 70% or more and less than 90%) | 0 (Herbicidal rate of 5% or less (almost no effect)) | 0 (Herbicidal rate of 5% or less (almost no effect)) | 3 (Herbicidal rate of 40% or more and less than 70%) | 0 (Herbicidal rate of 5% or less (almost no effect)) | 0 (Herbicidal rate of 5% or less (almost no effect)) | – |
| CCCC(=O)Oc1c(C)nn(C)c(=O)c1-c1c(-c2ccccc2OCC)sc2c(Cl)cccc12 [4-026] | 3 (Herbicidal rate of 40% or more and less than 70%) | – | – | 3 (Herbicidal rate of 40% or more and less than 70%) | – | – | 3 (Herbicidal rate of 40% or more and less than 70%) | – | – | – | 4 (Herbicidal rate of 70% or more and less than 90%) | 5 (Herbicidal rate of 90% or more (almost completely withered)) | – | – | – | – | – | herbicidal effect on O: lambsquarters (evaluation grade 0-5) (lambsquarters; [11]): 3 (Herbicidal rate of 40% or more and less than 70%); herbicidal effect on J: blackgrass (evaluation grade 0-5) (blackgrass [2]; [11]): 3 (Herbicidal rate of 40% or more and less than 70%); Herbicidal effect by soil treatment, H: barnyard grass (barnyard grass [5]): 3 (Herbicidal rate of 40% or more and less than 70%); herbicidal effect on R: persian speedwell (evaluation grade 0-5) (persian speedwell; [11]): 4 (Herbicidal rate of 70% or more and less than 90%); herbicidal effect on I: wild oat (evaluation grade 0-5) (wild oat; [11]): 0 (Herbicidal rate of 5% or less (almost no effect)); Herbicidal effect by soil treatment, F: southern crabgrass (southern crabgrass [6]): 3 (Herbicidal rate of 40% or more and less than 70%); herbicidal effect on F: southern crabgrass (evaluation grade 0-5) (southern crabgrass [7]; [11]): 3 (Herbicidal rate of 40% or more and less than 70%); herbicidal effect on N: redroot pigweed (evaluation grade 0-5) (redroot pigweed [8]; [11]): 5 (Herbicidal rate of 90% or more (almost completely withered)); herbicidal effect on G: green foxtail (evaluation grade 0-5) (green foxtail; [11]): 5 (Herbicidal rate of 90% or more (almost completely withered)); Herbicidal effect by soil treatment, N: redroot pigweed (redroot pigweed [9]): 2 (Herbicidal rate of 20% or more and less than 40%); Herbicidal effect by soil treatment, P: chickweed (chickweed): 1 (Herbicidal rate of 5% or more and less than 20%); Herbicidal effect by soil treatment, J: blackgrass (blackgrass [10]): 0 (Herbicidal rate of 5% or less (almost no effect)) |

Source: patent US20230085307A1, “PYRIDAZINONE COMPOUND AND HERBICIDE” (NISSAN CHEMICAL CORPORATION, priority 2019, published 2023)
